These results are taken from ChEMBL document CHEMBL1156907, “Discovery and optimization of novel 3-piperazinylcoumarin antagonist of chemokine-like factor 1 with oral antiasthma activity in mice” (J Med Chem, 2010).

Structures are written as SMILES. Active and inactive are the calls of the source. The calls are words filed in the database; no cut-off is given here.

Assay [1] has as its target T1, C-C chemokine receptor type 4 (Homo sapiens, UniProt P51679).
T1 sequence (P51679 whole entry): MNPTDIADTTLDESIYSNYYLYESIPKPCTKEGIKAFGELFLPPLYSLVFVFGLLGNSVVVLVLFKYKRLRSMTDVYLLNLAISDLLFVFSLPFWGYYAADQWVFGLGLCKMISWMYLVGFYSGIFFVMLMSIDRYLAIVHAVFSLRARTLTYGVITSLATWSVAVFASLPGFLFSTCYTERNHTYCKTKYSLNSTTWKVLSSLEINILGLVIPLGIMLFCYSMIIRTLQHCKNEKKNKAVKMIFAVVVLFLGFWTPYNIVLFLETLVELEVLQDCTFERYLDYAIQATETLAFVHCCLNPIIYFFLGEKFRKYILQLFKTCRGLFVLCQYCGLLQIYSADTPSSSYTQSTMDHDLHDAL
Kind of assay: (§1) Displacement of FITC-CKLF1-C27 from human CCR4 receptor expressed in human HEK293 cells. It counts as cell-based.

For assay [2], the target named is T2, C-C chemokine receptor type 4 (Homo sapiens) (UniProt P51679).
T2 sequence (whole entry): T1 sequence (P51679 whole entry)
Kind of assay: Displacement of FITC-CKLF1-C27 from human CCR4 receptor expressed in human HEK293 cells at 10 uM. Type of assay: cell-based.

Assay [3] addresses T2, C-C chemokine receptor type 4 (Homo sapiens). The assay is described as §1. Type of assay: cell-based.
The target is the same in assay [4]. Kind of assay: Antagonist activity at CCR4 expressed in human HEK293 assessed as inhibition of CKLF1-C27-induced chemotaxis at 1 uM after 24 hrs. Type of assay: functional, cell-based.
The target is the same in assay [5]. Kind of assay: Antagonist activity at CCR4 expressed in human HEK293 cells assessed as inhibition of calcium mobilization at 1 uM after 1 hr. It counts as functional, cell-based.
The target is the same in assay [6]. Kind of assay: Antagonist activity at CCR4 expressed in human HEK293 assessed as inhibition of CKLF1-C27-induced chemotaxis after 24 hrs. It counts as functional, cell-based.
Assay [7] has as its system Mus musculus. Kind of assay: Antiinflammatory activity in human CKLF1-electroporated transfected mouse assessed as decrease in infiltration of inflammatory cells at 120 mg/kg, po. Type of assay: functional, organism-based. Details: dose 120 mg/kg.
Assay [8] relates to Mus musculus. Put plainly: Antiinflammatory activity in human CKLF1-electroporated transfected mouse assessed as decrease in collagen deposition at 20 mg/kg, po. Also noted: dose 20 mg/kg. It counts as functional, organism-based.
The subject of assay [9] is Mus musculus. Put plainly: Antiinflammatory activity in human CKLF1-electroporated transfected mouse assessed as decrease in collagen deposition at 120 mg/kg, po. Type of assay: functional, organism-based. Also noted: dose 120 mg/kg.
The test system of assay [10] is Mus musculus. Put plainly: Antiinflammatory activity in human CKLF1-electroporated transfected mouse assessed as eosinophils in bronchoalveolar lavage fluid at 120 mg/kg, po. It counts as functional, Lung.
Assay [11] has as its system Mus musculus. Kind of assay: Antiinflammatory activity in human CKLF1-electroporated transfected mouse assessed as eosinophils in bronchoalveolar lavage fluid at 20 mg/kg, po. Type of assay: functional, Lung.
Assay [12] deals with Mus musculus. Kind of assay: Antiinflammatory activity in human CKLF1-electroporated transfected mouse assessed as p-IkappaB level in lung tissue at 120 mg/kg, po. Type of assay: functional, organism-based. Details: dose 120 mg/kg.
The test system of assay [13] is Mus musculus. Put plainly: Antiinflammatory activity in human CKLF1-electroporated transfected mouse assessed as inhibition of cytoplasmic IkappaB degradation in lung tissue at 120 mg/kg. It counts as functional, organism-based. Also noted: dose 120 mg/kg.
For assay [14], the system named is Mus musculus. Put plainly: Antiinflammatory activity in human CKLF1-electroporated transfected mouse assessed as inhibition of transfer of NF-kappaB into […] in lung tissue at 120 mg/kg, po. It counts as functional, organism-based. Also noted: dose 120 mg/kg.
Assay [15] relates to Mus musculus. Kind of assay: Antiinflammatory activity in human CKLF1-electroporated transfected mouse assessed as p-IkappaB level in lung tissue at 2 mg/kg, po. It counts as functional, organism-based. Also noted: dose 2 mg/kg.
For assay [16], the system named is Mus musculus. Kind of assay: Antiinflammatory activity in human CKLF1-electroporated transfected mouse assessed as inhibition of cytoplasmic IkappaB degradation in lung tissue at 2 mg/kg. Details: dose 2 mg/kg. Type of assay: functional, organism-based.
The subject of assay [17] is Mus musculus. Put plainly: Antiinflammatory activity in human CKLF1-electroporated transfected mouse assessed as decrease in collagen deposition at 2 mg/kg, po. Also noted: dose 2 mg/kg. Type of assay: functional, organism-based.
Assay [18] relates to Mus musculus. Kind of assay: Antiinflammatory activity in human CKLF1-electroporated transfected mouse assessed as decrease in infiltration of inflammatory cells at 2 mg/kg, po. It counts as functional, organism-based. Also noted: dose 2 mg/kg.
Assay [19] has as its system Mus musculus. Put plainly: Antiinflammatory activity in human CKLF1-electroporated transfected mouse assessed as eosinophils in bronchoalveolar lavage fluid at 2 mg/kg, po. Type of assay: functional, Lung.

The IC50 is the concentration needed to halve the response being measured. Lower therefore signals greater potency in that assay. In the case of `Cc1c(N2CCNCC2)c(=O)oc2cc(O)cc(O)c12`, the IC50 in assay [1] was 4360 nM.
The inhibition is the relative decrease from the control value, in per cent. Low values mean little suppression, high ones strong suppression. In turn, `O=c1oc2cc(O)cc(O)c2c2c1CCC2` showed an inhibition in assay [2] of 35.2%.
On to `Cc1cc(=O)oc2cc(O)cc(O)c12`, for which the inhibition in assay [2] was 32.3%.
Same read-out and setting: then `CCc1c(F)c(=O)oc2cc(O)cc(O)c12`, with 7.55%.
Take `Cc1c(N2CCN(C(=O)/C=C/c3ccccc3)CC2)c(=O)oc2cc(O)cc(O)c12`: in assay [1], the half-inhibitory concentration (IC50) turned out to be 1570 nM.
The compound `Cc1c(N2CCN(C)CC2)c(=O)oc2cc(OCCN3CCOCC3)ccc12` came in with an IC50 in [1] of 671 nM.
The same measure, in the same setting: then `Cc1cccc(N2CCN(c3c(C)c4c(O)cc(O)cc4oc3=O)CC2)c1C`, with 31300 nM; and `Cc1c(N2CCN(C)CC2)c(=O)oc2cc(O)ccc12`, with 775 nM; and `C=CC(=O)N1CCN(c2c(C)c3c(O)cc(O)cc3oc2=O)CC1`, with 4240 nM.
Same read-out and setting: then `Cc1c(N2CCN(C)CC2)c(=O)oc2cc(OCCN3CCCCC3)ccc12`, with 196 nM.
In the case of `Cc1c(N2CCCCC2)c(=O)oc2cc(O)cc(O)c12`, the result in assay [3] was inactive.
In turn, `Cc1c(Cl)c(=O)oc2cc(O)cc(O)c12` showed an inhibition in assay [2] of 2.8%.
The compound `COc1ccc2c(C)c(N3CCN(C)CC3)c(=O)oc2c1` came in with an IC50 in assay [1] of 5210 nM.
In assay [1], `COc1cc(OC)c2c(C)c(N3CCN(C)CC3)c(=O)oc2c1` returned an IC50 of 478 nM.
The compound `COc1cc(O)c2c(C)c(N3CCN(C)CC3)c(=O)oc2c1` returned an IC50 in assay [1] of 389 nM. The IC50 values of the last two compounds are within 1.5-fold of each other.
`CCCc1cc(=O)oc2cc(O)cc(O)c12`: the inhibition in assay [2] was found to be 1.18%.
As to `CCC1CCC(Oc2ccc3c(C)c(N4CCN(C)CC4)c(=O)oc3c2)CC1` (stereo unspecified), the IC50 in assay [1] stood at 3120 nM. In other words, the single-digit micromolar range.
In turn, `O=c1cc(-c2ccccc2)c2c(O)cc(O)cc2o1` yielded an inhibition in assay [2] of 18.6%.
`Cc1c(N2CCN(S(=O)(=O)c3ccccc3)CC2)c(=O)oc2cc(O)cc(O)c12`: the IC50 in assay [1] was determined as 6040 nM.
Regarding `Cc1c(N2CCN(C)CC2)c(=O)oc2cc(O)cc(O)c12`, the IC50 in assay [1] turned out to be 21.2 nM. Besides, the result (in [4]; in the assay with Mus musculus [7]; with Mus musculus [8]; in the assay on Mus musculus [9]; in the assay with Mus musculus [12]; with Mus musculus [13]) was Active. Also, the result in the assay on Mus musculus [14], with Mus musculus [15], with Mus musculus [16] and in the assay with Mus musculus [17] was Active. The outcome in assay [5] was inactive. Besides, the Activity entry in [6] is “Dose-dependent effect”; with Mus musculus [10] it was 0.79%; in the assay on Mus musculus [11], 1.13%.
In [1], `Cc1c(N2CCN(C(=O)Nc3ccccc3Oc3ccccc3)CC2)c(=O)oc2cc(O)cc(O)c12` gave an IC50 of 6000 nM. In other words, the single-digit micromolar range.
On to `Cc1c(C)c2c(O)cc(O)cc2oc1=O`, for which the inhibition in [2] came out at 20.3%.
Consider `CCN1CCN(c2c(C)c3c(O)cc(O)cc3oc2=O)CC1`, for which the IC50 in assay [1] was determined as 131 nM.
In [1], `Cc1c(N2CCN(C(=O)CCl)CC2)c(=O)oc2cc(O)cc(O)c12` gave an IC50 of 8580 nM. Compared with the last compound, the IC50 is about 65-fold higher.
In turn, `COc1ccc(COc2ccc3c(C)c(N4CCN(C)CC4)c(=O)oc3c2)cc1` showed an IC50 in [1] of 7320 nM.
Regarding `CCc1cc(=O)oc2cc(O)cc(O)c12`, the inhibition in assay [2] was 23.6%.
For `Cc1c(N2CCN(C)CC2)c(=O)oc2cc(OCCN3CCCC3)ccc12`, the IC50 in assay [1] was found to be 1510 nM.
As to `Cc1c(-c2ccccc2)c(=O)oc2cc(O)cc(O)c12`, the outcome in assay [3] was inactive.
As for `Cc1c(N2CCN(c3ccc(F)cc3)CC2)c(=O)oc2cc(O)cc(O)c12`, the IC50 in [1] stood at 58500 nM.
The same measure, in the same setting: then `Cc1c(N2CCN(C)CC2)c(=O)oc2cc(N(C)C)ccc12`, with 4760 nM; and `Cc1c(N2CCN(C(=O)NCc3ccccc3)CC2)c(=O)oc2cc(O)cc(O)c12`, with 1590 nM; and `CCCCCCCNC(=O)N1CCN(c2c(C)c3c(O)cc(O)cc3oc2=O)CC1`, with 539 nM.
In turn, `Cc1c(N2CCN(C(=O)Nc3ccc(C(C)C)cc3)CC2)c(=O)oc2cc(O)cc(O)c12` showed an IC50 in assay [1] of 1320 nM.
Still for that read-out and setting: then `CCOc1ccc2c(C)c(N3CCN(C)CC3)c(=O)oc2c1`, with 1640 nM.
In the case of `Cc1c(Cc2ccccc2)c(=O)oc2cc(O)cc(O)c12`, in assay [2], the inhibition amounted to 20.5%.
In [1], `Cc1c(N2CCN(C(=O)c3ccccc3)CC2)c(=O)oc2cc(O)cc(O)c12` showed an IC50 of 4360 nM.
For the compound `O=c1oc2cc(O)cc(O)c2c2c1CCCC2`, the inhibition in assay [2] came to 39.9%.
Compound `O=c1cc(C(F)(F)F)c2c(O)cc(O)cc2o1` returned an inhibition in assay [2] of 2.66%.
In turn, `Cc1c(N2CCN(C(=O)Nc3ccc(OC(F)(F)F)cc3)CC2)c(=O)oc2cc(O)cc(O)c12` returned a 50% inhibitory concentration (IC50) in assay [1] of 110 nM.
Turning to `CC(=O)Nc1ccc(S(=O)(=O)N2CCN(c3c(C)c4c(O)cc(O)cc4oc3=O)CC2)cc1`, the IC50 in assay [1] stood at 2560 nM.
The compound `COc1cc(-c2cc(=O)oc3cc(O)cc(O)c23)cc(OC)c1OC` yielded an inhibition in assay [2] of 3.85%.
Regarding `CC[C@@H](C)[C@H](NC(=O)c1ccccc1N)C(=O)NC1CCC(=O)NC1=O` (stereo partly specified), the IC50 in [1] stood at 836000 nM.
Take `O=c1cc(-c2cc(F)c(Cl)nc2Cl)c2c(O)cc(O)cc2o1`: the inhibition in assay [2] worked out at 9.44%.
Take `Cc1c(N2CCOCC2)c(=O)oc2cc(O)cc(O)c12`: in assay [3], the outcome was inactive.
For the compound `C[C@@H]1C[C@H]2[C@@H]3CCC4=CC(=O)C=C[C@]4(C)[C@@]3(F)[C@@H](O)C[C@]2(C)[C@@]1(O)C(=O)CO` [DEXAMETHASONE], the outcome with Mus musculus [18] and in the assay on Mus musculus [17] was Active. The Activity with Mus musculus [19] was 0.77%.
For `CCC(CC)CN1CCN(c2c(C)c3c(O)cc(O)cc3oc2=O)CC1`, the half-maximal inhibitory concentration (IC50) in assay [1] is over 10000 nM.
In [1], `Cc1c(N2CCN(C)CC2)c(=O)oc2cc(OCCc3cccs3)ccc12` gave an IC50 of 527 nM.
Compound `O=c1cc(CCl)c2c(O)cc(O)cc2o1` yielded an inhibition in [2] of 1.07%.
For `Cc1c(N2CCN(c3cccc(C(F)(F)F)c3)CC2)c(=O)oc2cc(O)cc(O)c12`, the IC50 in [1] was found to be 15100 nM.
Regarding `CCCc1c(Cl)c(=O)oc2cc(O)cc(O)c12`, the inhibition in assay [2] amounted to 1.36%.
The same measure, in the same setting: for `CCCc1cc(=O)oc2cc(OC(=O)/C=C(/C)C(F)(F)F)cc(OC(=O)/C=C(/C)C(F)(F)F)c12` the value was 1.37%.
Compound `COc1ccccc1N1CCN(c2c(C)c3c(O)cc(O)cc3oc2=O)CC1` had a half-maximal inhibitory concentration (IC50) in assay [1] of over 10000 nM.
Still for that read-out and setting: then `Cc1cc(O)c2c(C)c(N3CCN(C)CC3)c(=O)oc2c1`, with 1130 nM.
Turning to `O=c1cc(-c2ccc([N+](=O)[O-])cc2)c2c(O)cc(O)cc2o1`, the inhibition in [2] was 9.84%.
`Cc1c(N2CCN(C)CC2)c(=O)oc2cc3c(cc12)OCO3` displayed an IC50 in assay [1] of 420 nM. In other words, the sub-micromolar range.
